Values of other authors as cited in US20230066204A1 (OYE Therapeutics, Inc, priority 2019, published 2023).

Tested on: rat
Details: administered intravenously

For `Cn1c(=O)c2c(ncn2C)n(C)c1=O` [Caffeine], the “accelerating emergence from anesthesia” value is given as “effective in accelerating emergence from anesthesia”.
